One assay deals with T1, human recombinant GR (Homo sapiens, UniProt P04150).
T1 construct: purchased PanVera P2812
T1 sequence (P04150 1-777): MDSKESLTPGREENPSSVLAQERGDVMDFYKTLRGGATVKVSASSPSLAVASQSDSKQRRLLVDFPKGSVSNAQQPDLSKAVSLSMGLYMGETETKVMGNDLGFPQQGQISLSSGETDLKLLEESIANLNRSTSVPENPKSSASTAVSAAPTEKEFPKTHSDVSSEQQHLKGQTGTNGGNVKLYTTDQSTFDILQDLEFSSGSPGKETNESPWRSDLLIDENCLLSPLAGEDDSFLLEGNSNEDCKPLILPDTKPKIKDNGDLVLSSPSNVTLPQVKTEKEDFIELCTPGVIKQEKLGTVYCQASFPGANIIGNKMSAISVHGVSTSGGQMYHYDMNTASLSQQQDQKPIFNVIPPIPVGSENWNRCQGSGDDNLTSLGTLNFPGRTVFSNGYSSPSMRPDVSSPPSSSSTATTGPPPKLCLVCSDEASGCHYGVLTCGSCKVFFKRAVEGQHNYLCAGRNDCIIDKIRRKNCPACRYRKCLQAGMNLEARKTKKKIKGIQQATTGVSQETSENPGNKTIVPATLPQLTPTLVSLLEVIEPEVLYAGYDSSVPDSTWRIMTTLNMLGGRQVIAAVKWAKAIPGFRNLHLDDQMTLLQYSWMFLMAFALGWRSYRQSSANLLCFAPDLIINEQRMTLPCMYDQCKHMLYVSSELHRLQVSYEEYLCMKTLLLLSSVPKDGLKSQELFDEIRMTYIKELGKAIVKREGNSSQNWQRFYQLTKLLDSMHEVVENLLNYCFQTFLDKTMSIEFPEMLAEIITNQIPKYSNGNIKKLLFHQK
Kind of assay: Human glucocorticoid receptor (GR) fluorescence polarisation (FP) binding assay. On the procedure:
Human Glucocorticoid Receptor (GR) Fluorescence Polarisation (FP) Binding Assay
The following is a description of a FP assay for measuring compound inhibition of labelled glucocorticoid binding to the human recombinant GR.
The binding affinity of test compounds was determined using a FP binding assay using human recombinant GR (PanVera P2812) and a fluorescent labelled glucocorticoid ligand (Fluorome GS Red) (PanVera P2894). The presence of inhibitors prevents the formation of a GS Red/GR complex resulting in a decrease in the measured polarisation value. The change in polarisation value in the presence of test compounds is used to calculate the binding affinity of the compound for GR.
This assay was performed in 384 well, black, round-bottom, polypropylene micro titre plates in a final volume of 20 μl. The assay contained 5 μl 1 nM GR (final concentration), 5 μl 0.5 nM Fluorome GS Red (final concentration) in the presence of 10 μl test compounds. Positive control wells (high polarisation) receive, 10 μl 2% (v: v) DMSO vehicle (1% (v/v) final concentration)+5 μl 1 nM GR and 5 μl 0.5 nM Fluorome GS Red. […] Assay blank background wells (used for normalisation) receive 15 μl 1× GS screening buffer+5 μl GR.
Compounds were prepared as solubilised solids at 10 mM in DMSO. On the day of assay, an 8 point half-log serial dilution (55 μl DMSO+25 μl compound solution) was prepared. A 1:50 dilution (1 μl compound solution+49 μl 1× GR screening buffer) was prepared for each compound. The compounds were prepared at 2× final assay concentration.
The plates were mixed and incubated for 4 hour at room temperature.
10× GR screening buffer (100 mM potassium phosphate pH 7.4, 200 mM Na2MoO4, 1 mM EDTA, 20% (v/v) DMSO). To prepare 1× GR screening buffer, combine 1 ml 10× GR screening buffer (PanVera P2814)+1 ml stabilising peptide (PanVera P2815)+7.95 ml 4° C. MQ water. Add 50 μl 1M DTT, vortex and place on ice until use.

Assay [1] relates to induction of TAT by dexamethasone in HepG2 cells. Kind of assay: HepG2 tyrosine aminotransferase (TAT) assay. It is filed as cell-based, human. On the procedure:
Example 21. HepG2 Tyrosine Aminotransferase (TAT) Assay
Glucocorticoid mediated activation of TAT occurs by transactivation of glucocorticoid response elements in the TAT promoter by glucocorticoid receptor agonist complex.
TAT activity was measured as outlined in the literature by A. Ali et al., J. Med. Chem., 2004, 47, 2441-2452.
HepG2 cells were cultured using MEME media supplemented with 10% (v/v) foetal bovine serum; 2 mM L-glutamine and 1% (v/v) NEAA at 37° C., 5%/95% (v/v) CO2/air. The HepG2 cells were counted and adjusted to yield a density of 0.125×10^6 cells/ml in RPMI 1640 without phenol red, 10% (v/v) charcoal stripped FBS, 2 mM L-glutamine and seeded at 25,000 cells/well in 200 μl into 96 well, sterile, tissue culture micro titre plates, and incubated at 37° C., 5% CO2 for 24 hours
Growth media was removed and replaced with assay media {RPMI 1640 without phenol red, 2 mM L-glutamine+10 μM forskolin}. […] Compounds were serially half log diluted in 100% (v/v) dimethylsupfoxide from a 10 mM stock.
HepG2 cells were then lysed with 30 μl of cell lysis buffer containing a protease inhibitor cocktail for 15 minutes at 4° C. 155 μl of substrate mixture was then added containing 5.4 mM Tyrosine sodium salt, 10.8 mM alpha ketoglutarate and 0.06 mM pyridoxal 5′ phosphate in 0.1M potassium phosphate buffer (pH 7.4). After 2 hours incubation at 37° C. the reaction was terminated by the addition of 15 μl of 10M aqueous potassium hydroxide solution, and the plates incubated for a further 30 minutes at 37° C. The TAT activity product was measured by absorbance at […].
[compound] and fitting the data to a 4 parameter logistic equation.

The mark [2] stands for this setting: human recombinant GR, fluorescence polarisation binding assay, read-out: GR binding.
[3] abbreviates: HepG2 cells, challenge of 100 nM dexamethasone, Ki from IC50 by Cheng and Prusoff equation.

Read-outs that look alike come from different tables or passages of the source. Where only a bound is given, the exact number is not on record here.

`COc1ccc(S(=O)(=O)N2CCC3=Cc4c(cnn4-c4ccc(F)cc4)C[C@]3(C(=O)c3ccccn3)C2)cc1` [Example 2I, (R)-(1-(4-fluorophenyl)-6-((4-methoxyphenyl)sulfonyl)-4,4a,5,6,7,8-hexahydro-1H-pyrazolo[3,4-g]isoquinolin-4a-yl)(pyridin-2-yl)methanone]: the figures for the Ki (at human recombinant GR (setting [2]); in assay [1] (setting [3])) were less than 0.5 nM and less than 20 nM, respectively.
Regarding `Cc1ccc(S(=O)(=O)N2CCC3=Cc4c(cnn4-c4ccc(F)cc4)C[C@]3(C(=O)c3ccccn3)C2)cc1F` [Example 2J, (R)-(6-((3-fluoro-4-methylphenyl)sulfonyl)-1-(4-fluorophenyl)-4,4a,5,6,7,8-hexahydro-1H-pyrazolo[3,4-g]isoquinolin-4a-yl)(pyridin-2-yl)methanone], the Ki on human recombinant GR (setting [2]) was less than 0.5 nM; in assay [1] (setting [3]), less than 20 nM.
In the same order, the values of `O=C(c1ccccn1)[C@]12Cc3cnn(-c4ccc(F)cc4)c3C=C1CCN(S(=O)(=O)c1ccccc1)C2` [Example 2K, (R)-(1-(4-fluorophenyl)-6-(phenylsulfonyl)-4,4a,5,6,7,8-hexahydro-1H-pyrazolo [3,4-g]isoquinolin-4a-yl)(pyridin-2-yl)methanone] are less than 0.5 nM and less than 20 nM.
In the same order, the values of `O=C(c1ccccn1)[C@]12Cc3cnn(-c4ccc(F)cc4)c3C=C1CCN(S(=O)(=O)c1ccccc1F)C2` [Example 2L, (R)-(1-(4-fluorophenyl)-6-((2-fluorophenyl)sulfonyl)-4,4a,5,6,7,8-hexahydro-1H-pyrazolo[3,4-g]isoquinolin-4a-yl)(pyridin-2-yl)methanone] are less than 0.5 nM and less than 20 nM.
In the same order, the values of `Cn1cc(S(=O)(=O)N2CCC3=Cc4c(cnn4-c4ccc(F)cc4)C[C@]3(C(=O)c3ccccn3)C2)cn1` [Example 2M, (R)-(1-(4-fluorophenyl)-6-((1-methyl-1H-pyrazol-4-yl)sulfonyl)-4,4a,5,6,7,8-hexahydro-1H-pyrazolo[3,4-g]isoquinolin-4a-yl)(pyridin-2-yl)methanone] are less than 0.5 nM and 20 to 100 nM.
As for `O=C(c1ccccn1)[C@]12Cc3cnn(-c4ccc(F)cc4)c3C=C1CCN(S(=O)(=O)c1ccc(C(F)(F)F)nc1)C2` [Example 2N, (R)-(1-(4-fluorophenyl)-6-((6-(trifluoromethyl)pyridin-3-yl)sulfonyl)-4,4a,5,6,7,8-hexahydro-1H-pyrazolo[3,4-g]isoquinolin-4a-yl) (pyridin-2-yl)methanone], the Ki on human recombinant GR (setting [2]) was less than 0.5 nM; in assay [1] (setting [3]), less than 20 nM.
On to `Cc1ccc(S(=O)(=O)N2CCC3=Cc4c(cnn4-c4ccc(F)cc4)C[C@]3(C(=O)c3ccccn3)C2)cc1` [Example 2O, (R)-(1-(4-fluorophenyl)-6-tosyl-4,4a,5,6,7,8-hexahydro-1H-pyrazolo [3,4-g]isoquinolin-4a-yl)(pyridin-2-yl)methanone], for which the Ki was less than 0.5 nM on human recombinant GR and less than 20 nM in assay [1] (setting [3]).
As to `O=C(c1ccccn1)[C@]12Cc3cnn(-c4ccc(F)cc4)c3C=C1CCN(S(=O)(=O)c1ccc(F)c(C(F)(F)F)c1)C2` [Example 2P, (R)-(6-((4-fluoro-3-(trifluoromethyl)phenyl)sulfonyl)-1-(4-fluorophenyl)-4,4a,5,6,7,8-hexahydro-1H-pyrazolo[3,4-g]isoquinolin-4a-yl)(pyridin-2-yl)methanone], the Ki was 0.5 to 1 nM on human recombinant GR and less than 20 nM in assay [1].
In the case of `N#Cc1ccc(S(=O)(=O)N2CCC3=Cc4c(cnn4-c4ccc(F)cc4)C[C@]3(C(=O)c3ccccn3)C2)cc1` [Example 2Q, (R)-4-((1-(4-fluorophenyl)-4a-picolinoyl-4a,5,7,8-tetrahydro-1H-pyrazolo[3,4-g]isoquinolin-6 (4H)-yl)sulfonyl)benzonitrile], the Ki is less than 0.5 nM on human recombinant GR (setting [2]) and 20 to 100 nM in assay [1] (setting [3]).
In the same order, the values of `COc1ccc(S(=O)(=O)N2CCC3=Cc4c(cnn4-c4ccc(F)cc4)C[C@]3(C(=O)c3ccccn3)C2)cn1` [Example 2R, (R)-(1-(4-fluorophenyl)-6-((6-methoxypyridin-3-yl)sulfonyl)-4,4a,5,6,7,8-hexahydro-1H-pyrazolo[3,4-g]isoquinolin-4a-yl)(pyridin-2-yl)methanone] are less than 0.5 nM and less than 20 nM.
Regarding `O=C(c1ccccn1)[C@]12Cc3cnn(-c4ccc(F)cc4)c3C=C1CCN(S(=O)(=O)C1CCOCC1)C2` [Example 2S, (R)-(1-(4-fluorophenyl)-6-((tetrahydro-2H-pyran-4-yl)sulfonyl)-4,4a,5,6,7,8-hexahydro-1H-pyrazolo[3,4-g]isoquinolin-4a-yl)(pyridin-2-yl)methanone], the values for the Ki (on human recombinant GR (setting [2]); in assay [1] (setting [3])) were greater than 1 nM and no less than 100 nM, respectively.
`O=C(c1ccccn1)[C@]12Cc3cnn(-c4ccc(F)cc4)c3C=C1CCN(S(=O)(=O)C1CCCCC1)C2` [Example 2T, (R)-(6-(cyclohexylsulfonyl)-1-(4-fluorophenyl)-4,4a,5,6,7,8-hexahydro-1H-pyrazolo [3,4-g]isoquinolin-4a-yl)(pyridin-2-yl)methanone]: the Ki was greater than 1 nM on human recombinant GR (setting [2]) and no less than 100 nM in assay [1] (setting [3]).
In the same order, the values of `CCn1nccc1S(=O)(=O)N1CCC2=Cc3c(cnn3-c3ccc(F)cc3)C[C@]2(C(=O)c2cc(C(F)(F)F)ccn2)C1` [Example 2U, (R)-(6-((1-ethyl-1H-pyrazol-5-yl)sulfonyl)-1-(4-fluorophenyl)-4,4a,5,6,7,8-hexahydro-1H-pyrazolo[3,4-g]isoquinolin-4a-yl)(4-(trifluoromethyl)pyridin-2-yl)methanone] are greater than 1 nM and less than 20 nM.
In the same order, the values of `Cc1n[nH]c(C)c1S(=O)(=O)N1CCC2=Cc3c(cnn3-c3ccc(F)cc3)C[C@]2(C(=O)c2cc(C(F)(F)F)ccn2)C1` [Example 2V, (R)-(6-((3,5-dimethyl-1H-pyrazol-4-yl)sulfonyl)-1-(4-fluorophenyl)-4,4a,5,6,7,8-hexahydro-1H-pyrazolo[3,4-g]isoquinolin-4a-yl)(4-(trifluoromethyl)pyridin-2-yl)methanone] are greater than 1 nM and 20 to 100 nM.

Source of the values: patent US12226412B2, “Heteroaryl-ketone fused azadecalin glucocorticoid receptor modulators” (Corcept Therapeutics, Inc., priority 2012, dated 2025).
